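96-well plates; 48 h exposure; 5 concentrations. Endpoints by linear interpolation between flanking doses. Not reached: highest tested concentration assigned. Definition used: TGI = concentration required for complete inhibition of growth.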
Key:
Test in all cases: DTP human tumour cell line panel, 48 h
786-0 renal = system: 786-0 renal
A498 renal = system: A498 renal
A549 NSCLC = system: A549 NSCLC
ACHN renal = system: ACHN renal
CAKI-1 renal = system: CAKI-1 renal
CCRF-CEM leukemia = system: CCRF-CEM leukemia
COLO 205 colon = system: COLO 205 colon
DLD-1 colon = system: DLD-1 colon
DMS 114 small cell lung = system: DMS 114 small cell lung
DMS 273 small cell lung = system: DMS 273 small cell lung
EKVX NSCLC = system: EKVX NSCLC
HCC-2998 colon = system: HCC-2998 colon
HCT-116 colon = system: HCT-116 colon
HCT-15 colon = system: HCT-15 colon
HOP-18 NSCLC = system: HOP-18 NSCLC
HOP-62 NSCLC = system: HOP-62 NSCLC
HOP-92 NSCLC = system: HOP-92 NSCLC
HT29 colon = system: HT29 colon
IGROV1 ovarian = system: IGROV1 ovarian
K-562 leukemia = system: K-562 leukemia
KM12 colon = system: KM12 colon
KM20L2 colon = system: KM20L2 colon
LOX IMVI melanoma = system: LOX IMVI melanoma
M14 melanoma = system: M14 melanoma
M19-MEL melanoma = system: M19-MEL melanoma
MALME-3M melanoma = system: MALME-3M melanoma
NCI-H226 lung = system: NCI-H226 lung
NCI-H23 lung = system: NCI-H23 lung
NCI-H460 lung = system: NCI-H460 lung
OVCAR-3 ovarian = system: OVCAR-3 ovarian
OVCAR-4 ovarian = system: OVCAR-4 ovarian
OVCAR-5 ovarian = system: OVCAR-5 ovarian
OVCAR-8 ovarian = system: OVCAR-8 ovarian
RPMI-8226 leukemia = system: RPMI-8226 leukemia
SF-268 CNS = system: SF-268 CNS
SF-295 CNS = system: SF-295 CNS
SF-539 CNS = system: SF-539 CNS
SK-MEL-2 melanoma = system: SK-MEL-2 melanoma
SK-MEL-28 melanoma = system: SK-MEL-28 melanoma
SK-MEL-5 melanoma = system: SK-MEL-5 melanoma
SK-OV-3 ovarian = system: SK-OV-3 ovarian
SN12C renal = system: SN12C renal
SNB-19 CNS = system: SNB-19 CNS
SNB-75 CNS = system: SNB-75 CNS
SNB-78 CNS = system: SNB-78 CNS
SW-620 colon = system: SW-620 colon
TK-10 renal = system: TK-10 renal
U251 CNS = system: U251 CNS
UACC-257 melanoma = system: UACC-257 melanoma
UACC-62 melanoma = system: UACC-62 melanoma
UO-31 renal = system: UO-31 renal
XF 498 CNS = system: XF 498 CNS
LXFL 529 NSCLC = system: LXFL 529 NSCLC
MOLT-4 leukemia = system: MOLT-4 leukemia
NCI-H522 lung = system: NCI-H522 lung
RXF-631 renal = system: RXF-631 renal
SR leukemia = system: SR leukemia

O=c1cc2ccccc2nn1-c1ccccc1Cl
TGI (786-0 renal): > 100 µM | TGI (A498 renal): > 100 µM | TGI (A549 NSCLC): > 100 µM | TGI (ACHN renal): > 100 µM | TGI (CAKI-1 renal): > 100 µM | TGI (CCRF-CEM leukemia): > 100 µM | TGI (COLO 205 colon): > 100 µM | TGI (DLD-1 colon): > 100 µM | TGI (DMS 114 small cell lung): > 100 µM | TGI (DMS 273 small cell lung): > 100 µM | TGI (EKVX NSCLC): > 100 µM | TGI (HCC-2998 colon): > 100 µM | TGI (HCT-116 colon): > 100 µM | TGI (HCT-15 colon): > 100 µM | TGI (HOP-18 NSCLC): > 100 µM | TGI (HOP-62 NSCLC): > 100 µM | TGI (HOP-92 NSCLC): > 100 µM | TGI (HT29 colon): > 100 µM | TGI (IGROV1 ovarian): > 100 µM | TGI (K-562 leukemia): > 100 µM | TGI (KM12 colon): > 100 µM | TGI (KM20L2 colon): > 100 µM | TGI (LOX IMVI melanoma): > 100 µM | TGI (M14 melanoma): > 100 µM | TGI (M19-MEL melanoma): > 100 µM | TGI (MALME-3M melanoma): > 100 µM | TGI (NCI-H226 lung): > 100 µM | TGI (NCI-H23 lung): > 100 µM | TGI (NCI-H460 lung): > 100 µM | TGI (OVCAR-3 ovarian): > 100 µM | TGI (OVCAR-4 ovarian): > 100 µM | TGI (OVCAR-5 ovarian): > 100 µM | TGI (OVCAR-8 ovarian): > 100 µM | TGI (RPMI-8226 leukemia): > 100 µM | TGI (SF-268 CNS): > 100 µM | TGI (SF-295 CNS): > 100 µM | TGI (SF-539 CNS): > 100 µM | TGI (SK-MEL-2 melanoma): > 100 µM | TGI (SK-MEL-28 melanoma): > 100 µM | TGI (SK-MEL-5 melanoma): > 100 µM | TGI (SK-OV-3 ovarian): > 100 µM | TGI (SN12C renal): > 100 µM | TGI (SNB-19 CNS): > 100 µM | TGI (SNB-75 CNS): > 100 µM | TGI (SNB-78 CNS): > 100 µM | TGI (SW-620 colon): > 100 µM | TGI (TK-10 renal): > 100 µM | TGI (U251 CNS): > 100 µM | TGI (UACC-257 melanoma): > 100 µM | TGI (UACC-62 melanoma): > 100 µM | TGI (UO-31 renal): 96.6 µM | TGI (XF 498 CNS): 77.5 µM

CCOC(=O)C(=O)Nc1c(N(CC)CC)n2ccccc2nc1=O
TGI (786-0 renal): > 100 µM | TGI (A498 renal): > 100 µM | TGI (A549 NSCLC): > 100 µM | TGI (ACHN renal): > 100 µM | TGI (CAKI-1 renal): > 100 µM | TGI (CCRF-CEM leukemia): > 100 µM | TGI (COLO 205 colon): > 100 µM | TGI (DLD-1 colon): > 100 µM | TGI (DMS 114 small cell lung): > 100 µM | TGI (DMS 273 small cell lung): > 100 µM | TGI (EKVX NSCLC): > 100 µM | TGI (HCT-116 colon): > 100 µM | TGI (HCT-15 colon): > 100 µM | TGI (HOP-62 NSCLC): > 100 µM | TGI (HOP-92 NSCLC): > 100 µM | TGI (HT29 colon): > 100 µM | TGI (IGROV1 ovarian): > 100 µM | TGI (K-562 leukemia): > 100 µM | TGI (KM12 colon): > 100 µM | TGI (KM20L2 colon): > 100 µM | TGI (LXFL 529 NSCLC): > 100 µM | TGI (M14 melanoma): > 100 µM | TGI (M19-MEL melanoma): > 100 µM | TGI (MALME-3M melanoma): > 100 µM | TGI (MOLT-4 leukemia): > 100 µM | TGI (NCI-H226 lung): > 100 µM | TGI (NCI-H23 lung): > 100 µM | TGI (NCI-H460 lung): > 100 µM | TGI (NCI-H522 lung): > 100 µM | TGI (OVCAR-3 ovarian): > 100 µM | TGI (OVCAR-5 ovarian): > 100 µM | TGI (OVCAR-8 ovarian): > 100 µM | TGI (RPMI-8226 leukemia): > 100 µM | TGI (RXF-631 renal): > 100 µM | TGI (SF-268 CNS): > 100 µM | TGI (SF-539 CNS): > 100 µM | TGI (SK-MEL-2 melanoma): > 100 µM | TGI (SK-MEL-5 melanoma): > 100 µM | TGI (SK-OV-3 ovarian): > 100 µM | TGI (SN12C renal): > 100 µM | TGI (SNB-19 CNS): > 100 µM | TGI (SNB-75 CNS): > 100 µM | TGI (SNB-78 CNS): > 100 µM | TGI (SR leukemia): > 100 µM | TGI (SW-620 colon): > 100 µM | TGI (U251 CNS): > 100 µM | TGI (UACC-62 melanoma): > 100 µM | TGI (UO-31 renal): > 100 µM | TGI (XF 498 CNS): > 100 µM
